This is an account of results in patent publication US11591365B2, “BCL9 peptides and variants thereof” (WntRx Pharmaceuticals Inc., priority 2017, dated 2023).

The assay relates to Colo320DM. Nature of the assay: Colo320DM cell viability. Type of assay: cell-based, human. The text has this: In some embodiments, a polypeptide described herein inhibits binding of BLC9 to β-catenin when assessed in a cell-viability assay. In some embodiments, the cell-viability assay is a CellTiterGlo luminescent assay, wherein the viability of cells is quantitatively measured. Various cell lines, transformed cell lines or primary cells derived from a healthy subject or subject suffering from a disease can be used in this assay.

The structures appear in SMILES notation. Where a SMILES comes first, the peptide text is derived from it. Bridges are numbered along the chain shown (N, C = ends). [ ]: non-standard residue; d: D form. The star is where a group is joined. 2Nal = N[C@@H](Cc1ccc2ccccc2c1)C(=O)O; NMeR = CN[C@@H](CCCNC(=N)N)C(=O)O; Palmitoyl = CCCCCCCCCCCCCCCC(=O)*; hArg = N=C(N)NCCCC[C@H](N)C(=O)O; NMeQ = CN[C@@H](CCC(N)=O)C(=O)O; Cha = N[C@@H](CC1CCCCC1)C(=O)O; dCha = N[C@H](CC1CCCCC1)C(=O)O; Cba = N[C@@H](CC1CCC1)C(=O)O; PEG4 = NCCOCCOCCOCCOCCC(=O)O; S5 = C=CCCC[C@](C)(N)C(=O)O Some results are limits rather than exact numbers.

Take `CC[C@H](C)[C@@H]1NC(=O)[C@@](C)(NC(=O)[C@H](CCCNC(=N)N)N(C)C(=O)[C@H](CC(C)C)NC(=O)[C@@H](NC(=O)[C@H](CCC(N)=O)NC(=O)[C@H](CC(C)C)NC(=O)[C@H](CO)NC(=O)[C@H](CCCNC(=N)N)NC(=O)[C@H](CCC(=O)O)NC(=O)[C@H](CCCNC(=N)N)NC(=O)[C@H](Cc2c[nH]cn2)NC(C)=O)[C@@H](C)O)CCCC=CCCC[C@@](C)(C(=O)N[C@@H](CC2CCC2)C(=O)N[C@@H](Cc2ccc3ccccc3c2)C(=O)O)NC(=O)[C@H](CCCNC(=N)N)NC(=O)[C@H](CCC(N)=O)NC1=O` [SEQ ID NO: 152, HRERSLQTL(N-methylR)XIQRX(CBA)(2-Nal)] (Ac-HRERSLQTL[NMeR][S5]IQR[S5][Cba][2Nal]-OH; staple 11-15): the concentration for half-maximal inhibition (IC50) (as a rule, the concentration that inhibits the measured activity by half) was over 5000 nM.
To `CCCCCCCCCCCCCCCC(=O)NCCOCCOCCOCCOCCC(=O)N[C@@H](Cc1c[nH]cn1)C(=O)N[C@@H](CCCNC(=N)N)C(=O)N[C@@H](CCC(N)=O)C(=O)N[C@@H](CCCNC(=N)N)C(=O)N[C@@H](CO)C(=O)N[C@@H](CC(C)C)C(=O)N[C@@H](CCC(N)=O)C(=O)N[C@H](C(=O)N[C@@H](CC(C)C)C(=O)N[C@@H](CCCNC(=N)N)C(=O)N[C@@]1(C)CCCC=CCCC[C@@](C)(C(=O)N[C@@H](CC2CCC2)C(=O)N[C@@H](Cc2ccc3ccccc3c2)C(N)=O)NC(=O)[C@H](CCCNC(=N)N)NC(=O)[C@H](CCC(N)=O)NC(=O)[C@H]([C@@H](C)CC)NC1=O)[C@@H](C)O` [SEQ ID NO: 160, HRQRSLQTLRXIQRX(CBA)(2-Nal)] ({Palmitoyl-PEG4}-HRQRSLQTLR[S5]IQR[S5][Cba][2Nal]-NH2; staple 11-15) belongs 830 nM.
`CC[C@H](C)[C@@H]1NC(=O)[C@@](C)(NC(=O)[C@H](CCCNC(=N)N)NC(=O)[C@H](CC(C)C)NC(=O)[C@@H](NC(=O)[C@H](CCC(N)=O)NC(=O)[C@H](CC(C)C)NC(=O)[C@H](CO)NC(=O)[C@H](CCCNC(=N)N)NC(=O)[C@H](CCC(=O)O)NC(=O)[C@H](CCCNC(=N)N)NC(=O)[C@H](Cc2c[nH]cn2)NC(=O)[C@H](CCC(=O)O)NC(C)=O)[C@@H](C)O)CCCC=CCCC[C@@](C)(C(=O)N[C@@H](CC(C)C)C(=O)N[C@@H](Cc2ccc3ccccc3c2)C(N)=O)NC(=O)[C@H](CCCNC(=N)N)NC(=O)[C@H](CCC(N)=O)NC1=O` [SEQ ID NO: 7, EHRERSLQTLRXIQRXL(2-Nal)] (Ac-EHRERSLQTLR[S5]IQR[S5]L[2Nal]-NH2; staple 12-16) came in with an IC50 of 9100 nM. This IC50 lies about 11-fold higher than the previous one.
To `CC[C@H](C)[C@@H]1NC(=O)[C@@](C)(NC(=O)[C@H](CCCNC(=N)N)NC(=O)[C@H](CC(C)C)NC(=O)[C@@H](NC(=O)[C@H](CCC(N)=O)N(C)C(=O)[C@H](CC(C)C)NC(C)=O)[C@@H](C)O)CCCC=CCCC[C@@](C)(C(=O)N[C@@H](CC2CCC2)C(=O)N[C@@H](Cc2ccc3ccccc3c2)C(=O)NCCC(=O)NCCC(N)=O)NC(=O)[C@H](CCCNC(=N)N)NC(=O)[C@H](CCC(N)=O)NC1=O` (single isomer, unassigned) [SEQ ID NO: 111, L(N-methylQ)TLRXIQRX(CBA)(2-Nal)(β-Ala)(β-Ala)] belongs 3070 nM; to `CC[C@H](C)[C@@H]1NC(=O)[C@@](C)(NC(=O)[C@H](CCCNC(=N)N)NC(=O)[C@H](CC(C)C)NC(=O)[C@@H](NC(=O)[C@H](CCC(N)=O)NC(=O)[C@H](CC(C)C)NC(=O)[C@H](CO)NC(=O)[C@H](CCCNC(=N)N)NC(=O)[C@H](CCC(N)=O)NC(=O)[C@H](CCCCNC(=N)N)NC(=O)[C@H](Cc2c[nH]cn2)NC(C)=O)[C@@H](C)O)CCCC=CCCC[C@@](C)(C(=O)N[C@@H](CC2CCCCC2)C(=O)N[C@@H](Cc2ccc3ccccc3c2)C(N)=O)NC(=O)[C@H](CCCNC(=N)N)NC(=O)[C@H](CCC(N)=O)NC1=O` [SEQ ID NO: 183, H(homoArg)QRSLQTLRXIQRX(Cha)(2-Nal)] (Ac-H[hArg]QRSLQTLR[S5]IQR[S5][Cha][2Nal]-NH2; staple 11-15), 2530 nM; to `CC[C@H](C)[C@@H]1NC(=O)[C@@](C)(NC(=O)[C@H](CCCNC(=N)N)NC(=O)[C@H](CC(C)C)NC(=O)[C@@H](NC(=O)[C@H](CCC(N)=O)NC(=O)[C@H](CC(C)C)NC(=O)[C@H](CO)NC(=O)[C@H](CCCNC(=N)N)NC(=O)[C@H](CCC(=O)O)NC(=O)[C@H](CCCNC(=N)N)NC(C)=O)[C@@H](C)O)CCCC=CCCC[C@@](C)(C(=O)N[C@@H](CC2CCC2)C(=O)N[C@@H](Cc2ccc3ccccc3c2)C(N)=O)NC(=O)[C@H](CCCNC(=N)N)NC(=O)[C@H](CCC(N)=O)NC1=O` [SEQ ID NO: 13, RERSLQTLRXIQRX(CBA)(2-Nal)] (Ac-RERSLQTLR[S5]IQR[S5][Cba][2Nal]-NH2; staple 10-14), 1610 nM.
In the case of `CC[C@H](C)[C@@H]1NC(=O)[C@@](C)(NC(=O)[C@H](CCCNC(=N)N)NC(=O)[C@H](CC(C)C)NC(=O)[C@@H](NC(=O)[C@H](CCC(N)=O)N(C)C(=O)[C@H](CC(C)C)NC(=O)[C@H](CO)NC(=O)[C@H](CCCNC(=N)N)NC(=O)[C@H](CCC(N)=O)NC(=O)[C@H](CCCNC(=N)N)NC(=O)[C@H](Cc2c[nH]cn2)NC(C)=O)[C@@H](C)O)CCCC=CCCC[C@@](C)(C(=O)N[C@@H](CC2CCC2)C(=O)N[C@@H](Cc2ccc3ccccc3c2)C(N)=O)NC(=O)[C@H](CCCNC(=N)N)NC(=O)[C@H](CCC(N)=O)NC1=O` [SEQ ID NO: 153, HRQRSL(N-methylQ)TLRXIQRX(CBA)(2-Nal)] (Ac-HRQRSL[NMeQ]TLR[S5]IQR[S5][Cba][2Nal]-NH2; staple 11-15; N-terminus and C-terminus assumed), the IC50 came out at 2560 nM.
To `CC[C@H](C)[C@@H]1NC(=O)[C@@](C)(NC(=O)[C@H](CCCNC(=N)N)NC(=O)[C@H](CC(C)C)NC(=O)[C@@H](NC(=O)[C@H](CCC(N)=O)NC(=O)[C@H](CC(C)C)NC(=O)[C@H](CO)NC(=O)[C@H](CCCNC(=N)N)NC(=O)[C@H](CCC(=O)O)NC(=O)[C@H](CCCNC(=N)N)NC(=O)[C@H](Cc2c[nH]cn2)NC(C)=O)[C@@H](C)O)CCCC=CCCC[C@@](C)(C(=O)N[C@@H](CC(C)C)C(=O)N[C@@H](Cc2ccc3ccccc3c2)C(N)=O)NC(=O)[C@H](CCCNC(=N)N)NC(=O)[C@H](CCC(N)=O)NC1=O` [SEQ ID NO: 6, HRERSLQTLRXIQRXL(2-Nal)] (Ac-HRERSLQTLR[S5]IQR[S5]L[2Nal]-NH2; staple 11-15) belongs 5300 nM.
To `CC[C@H](C)[C@@H]1NC(=O)[C@@](C)(NC(=O)[C@H](CCCNC(=N)N)NC(=O)[C@H](CC(C)C)NC(=O)[C@@H](NC(=O)[C@H](CCC(N)=O)NC(=O)[C@H](CC(C)C)NC(=O)[C@H](CO)NC(=O)[C@H](CCCNC(=N)N)NC(=O)[C@H](CCC(N)=O)NC(=O)[C@H](CCCNC(=N)N)NC(=O)[C@H](Cc2c[nH]cn2)NC(C)=O)[C@@H](C)O)CCCC=CCCC[C@@](C)(C(=O)N[C@@H](Cc2ccc(Cl)cc2)C(=O)N[C@@H](Cc2ccc3ccccc3c2)C(N)=O)NC(=O)[C@H](CCCNC(=N)N)NC(=O)[C@H](CCC(N)=O)NC1=O` (single isomer, unassigned) [SEQ ID NO: 179, HRQRSLQTLRXIQRX(Phe-4-Cl)(2-Nal)] belongs 4680 nM; to `CC[C@H](C)[C@@H]1NC(=O)[C@@](C)(NC(=O)[C@H](CCCNC(=N)N)NC(=O)[C@H](CC(C)C)NC(=O)[C@]2(C)CCCC=CCCC[C@](C)(NC(=O)[C@H](CCCNC(=N)N)NC(=O)[C@H](CCC(N)=O)NC(=O)[C@H](CCCNC(=N)N)NC(=O)[C@H](Cc3c[nH]cn3)NC(C)=O)C(=O)N[C@@H](CC(C)C)C(=O)N[C@@H](CCC(N)=O)C(=O)N2)CCCC=CCCC[C@@](C)(C(=O)N[C@@H](CC2CCC2)C(=O)N[C@@H](Cc2ccc3ccccc3c2)C(N)=O)NC(=O)[C@H](CCCNC(=N)N)NC(=O)[C@H](CCC(N)=O)NC1=O` [SEQ ID NO: 90, HRQRXLQXLRZIQRZ(CBA)(2-Nal)] (Ac-HRQR[S5]LQ[S5]LR[S5]IQR[S5][Cba][2Nal]-NH2; staple 5-8, 11-15), 1830 nM; to `CCCCCCCCCCCCCCCC(=O)NCCOCCOCCOCCOCCC(=O)NCCCC[C@H](NC(=O)[C@H](Cc1ccc2ccccc2c1)NC(=O)[C@H](CC1CCC1)NC(=O)[C@]1(C)CCCC=CCCC[C@](C)(NC(=O)[C@H](CCCNC(=N)N)NC(=O)[C@H](CC(C)C)NC(=O)[C@@H](NC(=O)[C@H](CCC(N)=O)NC(=O)[C@H](CC(C)C)NC(=O)[C@H](CO)NC(=O)[C@H](CCCNC(=N)N)NC(=O)[C@H](CCC(N)=O)NC(=O)[C@H](CCCNC(=N)N)NC(=O)[C@H](Cc2c[nH]cn2)NC(C)=O)[C@@H](C)O)C(=O)N[C@@H]([C@@H](C)CC)C(=O)N[C@@H](CCC(N)=O)C(=O)N[C@@H](CCCNC(=N)N)C(=O)N1)C(N)=O` [SEQ ID NO: 161, HRQRSLQTLRXIQRX(CBA)(2-Nal)], 3350 nM.
As to `CC[C@H](C)[C@@H]1NC(=O)[C@@](C)(NC(=O)[C@H](CCCNC(=N)N)NC(=O)[C@H](CC(C)C)NC(=O)[C@]2(C)CCCC=CCCC[C@](C)(NC(=O)[C@H](CCC(=O)O)NC(=O)[C@H](CCCNC(=N)N)NC(=O)[C@@H](N)Cc3c[nH]cn3)C(=O)N[C@@H](CO)C(=O)N[C@@H](CC(C)C)C(=O)N[C@@H](CCC(N)=O)C(=O)N2)CCCC=CCCC[C@@](C)(C(=O)N[C@@H](CC2CCC2)C(=O)N[C@@H](Cc2ccc3ccccc3c2)C(=O)O)NC(=O)[C@H](CCCNC(=N)N)NC(=O)[C@H](CCC(N)=O)NC1=O` [SEQ ID NO: 82, HREXSLQXLRZIQRZ(CBA)(2-Nal)] (H-HRE[S5]SLQ[S5]LR[S5]IQR[S5][Cba][2Nal]-OH; staple 4-8, 11-15), the IC50 was over 5000 nM.
To `CC[C@H](C)[C@@H]1NC(=O)[C@@](C)(NC(=O)[C@H](CCCNC(=N)N)NC(=O)[C@H](CC(C)C)NC(=O)[C@@H](NC(=O)[C@H](CCC(N)=O)N(C)C(=O)[C@@H](CC2CCCCC2)NC(=O)[C@H](CO)NC(=O)[C@H](CCCNC(=N)N)NC(=O)[C@H](CCC(N)=O)NC(=O)[C@H](CCCNC(=N)N)NC(=O)[C@H](Cc2c[nH]cn2)NC(C)=O)[C@@H](C)O)CCCC=CCCC[C@@](C)(C(=O)N[C@@H](CC2CCCCC2)C(=O)N[C@@H](Cc2ccc3ccccc3c2)C(N)=O)NC(=O)[C@H](CCCNC(=N)N)NC(=O)[C@H](CCC(N)=O)NC1=O` [SEQ ID NO: 187, HRQRSD(Cha)(N-MeGln)TLRXIQRX(Cha)(2-Nal)] (Ac-HRQRS[dCha][NMeQ]TLR[S5]IQR[S5][Cha][2Nal]-NH2; staple 11-15; N-terminus and C-terminus assumed) belongs 2180 nM.
